Assay results taken from PubChem BioAssay AID1985 (Southern Research Specialized Biocontainment Screening …, 2009).
“And” between values parts separate entries of the source, which are not always exact repeats. Identical values can stand only once.

test system: S. Typhi PhoP-promoter GFP reporter, fluorescence, 4 h; assay: modified counter assay using GFP fluorescence, PhoP regulon inhibitor project, dose response (AID 1985)

SMILES	IC50
CCN(CC)C(=S)SSC(=S)N(CC)CC	21.8 µM
COc1ccc(CCN2CCC(Nc3nc4ccccc4n3Cc3ccc(F)cc3)CC2)cc1	105 µM
Nc1nc(Nc2cccc(F)c2)nc2ccccc12	54 µM
O=C(N/N=C\c1ccc(Cl)s1)c1cccs1	32.9 µM
CCCCOc1ccc(C(=O)NNC(=S)NC(=O)CC)cc1	38.9 µM
C#CCOCCOCCOCCNc1nc(N2CCN(C(=O)CCCCCCCCCCNC(=O)[C@H](CCCCN)n3cc(CCO)nn3)CC2)nc(N2CCN(C(=O)CCCCCCCCCCNC(=O)[C@H](CCCN=C(N)N)n3cc(C[C@@H](C)CC)nn3)CC2)n1	56.8 µM
Cc1ccc2oc(=O)c(/C=C(\O)c3ccccc3)nc2c1	46.7 µM
O=C(/C=C/c1cc(Br)ccc1O)c1ccco1	68.1 µM
O=C1c2cccc3cccc(c23)C(=O)C1(O)O	28.8 µM
CO[C@H]1/C=C/O[C@@]2(C)Oc3c(C)c(O)c4c(O)c(c(C=NN5CCN(C)CC5)c(O)c4c3C2=O)NC(=O)/C(C)=C\C=C\[C@H](C)[C@H](O)[C@@H](C)[C@@H](O)[C@@H](C)[C@H](OC(C)=O)[C@@H]1C	32.6 µM
CCCCCCCCCCOC(=O)Cn1c(COc2ccccc2OC)[n+](C)c2ccccc21	25.4 µM
CCOC(=O)c1c(-c2ccc(-c3ccccc3)cc2)csc1NC(=O)CNCCN(C)C	82.2 µM
CN1CCN(C(c2cccc(Cl)c2)c2ccccc2Cl)CC1 (stereo not drawn)	107 µM
Cc1ccc(NC(=S)Nc2ccc(S(=O)(=O)Nc3ncccn3)cc2)cc1Cl	101 µM
N=c1n(CC(=O)c2ccc(Br)s2)c2ccccc2n1Cc1ccccc1	47.2 µM
Cc1c2ccncc2c(C)c2c1[nH]c1ccccc12	32.9 µM
FC(F)Oc1ccc(NC(=S)NCc2nc3ccccc3[nH]2)cc1	33.7 µM
O=C(NC(CO)C(O)c1ccc([N+](=O)[O-])cc1)C(Cl)Cl (stereo not drawn)	2.55 µM
CCCCCCCCCC[N+](C)(C)CC/C=C1/c2ccccc2Sc2ccc(Cl)cc21	16.5 µM
CC/C(=N\Nc1ccnc2cc(Cl)ccc12)c1ccc(O)cc1	148 µM
O=c1c2ccccc2nc(-c2cccc(Cl)c2)n1O	113 µM
CCn1nc(C(=O)O)c(=O)c2cc3c(cc21)OCO3	103 µM

SMILES	IC50
COc1cc([N+](=O)[O-])cc(/C=N/NC(=O)c2cccnc2)c1O	66.7 µM
Cc1nc(N)c(Cc2ccc(Cl)cc2Cl)c(N)n1	83.9 µM
CC(=O)Nc1ccc(S(=O)(=O)NNc2cccc(C)c2)cc1	58.9 µM
Oc1cc(Cl)ccc1Oc1ccc(Cl)cc1Cl	0.369 µM
O=C1CC(NC(=O)C(F)(F)F)=NN1c1ccccc1	143 µM
CCn1nnc(NC(=O)c2ccc([N+](=O)[O-])o2)n1	28.4 µM
OCCCNc1c2ccccc2nc2ccccc12	136 µM
COc1cccc(Nc2cc(C)nc3ccccc23)c1	98.8 µM
C/C(=N\NC(=O)c1cccc(Br)c1)c1ccccn1	54.4 µM
CN(C)c1ccc(O)c2c1CC1CC3[C@@H](N(C)C)C(=O)C(C(N)=O)=C(O)[C@]3(O)C(=O)C1=C2O (stereo partly drawn)	5.1 µM
CN(C)c1ccc(/C=C/c2ccc3ccccc3[n+]2C)cc1	19.5 µM
O=C(CSc1nnc(-c2ccccc2)n1-c1ccc(Cl)cc1)NC1CCS(=O)(=O)C1 (stereo not drawn)	31.2 µM
NC(N)=N/N=C/c1ccc(OCc2ccc(Cl)cc2Cl)cc1	16.9 µM
Cc1ccc(NC(=O)c2ccccc2)s1	91.9 µM
CCCCCOc1ccc(CSC2=NCCN2)cc1[N+](=O)[O-]	95.1 µM
O=Cc1ccc(O)cc1O	109 µM
O=C(Cc1ccccc1)NNC(=S)NC(=O)c1cccs1	37.5 µM
CCCCCCCCCCOC(=O)Cn1c(COc2cccc(OC)c2)[n+](C)c2ccccc21	18.1 µM
O=c1cc(-c2ccccc2)cc(-c2ccccc2)n1O	51.7 µM
NC1=C(Br)C(=O)c2ccccc2C1=O	20.1 µM
O=C(NCCCN1CCN(c2ccc(F)cc2)CC1)Nc1ccc([N+](=O)[O-])cc1	117 µM
Cc1cc(N=Nc2ccc(C)c(N=Nc3cc(C)c(N)cc3N)c2)c(N)cc1N	108 µM

SMILES	IC50
CN1CCN(C2=Cc3ccccc3Sc3cc(F)ccc32)CC1	114 µM
CCn1cc(C(=O)O)c(=O)c2cc(F)c(N3CCN(C(=S)NC(=O)c4cc(OC)cc(OC)c4)CC3)cc21	3.11 µM
CC(NCc1ccc(Cl)c(Cl)c1)C(O)c1ccccc1 (stereo not drawn)	82.3 µM
O=C(N/N=C/c1cc(Cl)cc(Cl)c1O)c1ccncc1	20.2 µM
CN(C)CCCNc1cc(C(C)(C)C)nc2c(-c3ccccc3)cnn12	75.7 µM
CCCCC(=O)NC(=S)NNC(=O)CC	50.2 µM
C#CCOCCOCCOCCNc1nc(N2CCN(C(=O)CCCCCCCCCCNC(=O)[C@H](CCCCN)n3cc(CCO)nn3)CC2)nc(N2CCN(C(=O)CCCCCCCCCCNC(=O)[C@H](CCCCN)n3cc(C[C@@H](C)CC)nn3)CC2)n1	38 µM
Clc1ccc(C[n+]2cc(-c3ccc(Cl)cc3)n3c2CCC3)cc1	101 µM
COc1ccc(CNCCc2cccc(F)c2)c2ccccc12	81.7 µM
CC(C)N1CSC(=S)N(Cc2ccccc2)C1	59.7 µM
C1=C(CCNc2ncnc3c2[nH]c2ccccc23)CCCC1	115 µM
CCn1cc(C(=O)NCCCN(C)C)c(=O)c2cc(F)c(N3CCN(C)CC3)cc21	35.5 µM
OC(CNCCc1ccc(Cl)cc1)COc1cc(Cl)ccc1Cl (stereo not drawn)	36.6 µM
Nc1nc(=S)c2[nH]cnc2[nH]1	6.3 µM
NC1=NC[C@H](CC2CCCCC2)N1CCc1cc(C(F)(F)F)cc(C(F)(F)F)c1	37.6 µM
Oc1c(I)cc(Cl)c2cccnc12	8.07 µM
Cc1ccccc1C(=O)Nc1cccc(C(=O)N/N=C/c2cc(Cl)cc([N+](=O)[O-])c2O)c1	33.8 µM
CCN(CC)c1ccc(CNc2nc3ccccc3n2CCN2CCCCC2)cc1	145 µM
CCCCOc1ccc(CSC(=N)N)cc1Cl	31.9 µM
Oc1[nH]c2ccc(Br)cc2c1N=NC(=S)N1CCOCC1	47.3 µM
Cc1ccc(S(=O)(=O)NNc2ccccc2)cc1	134 µM
O=C(CSc1ccccn1)N/N=C/c1cc([N+](=O)[O-])ccc1O	35.6 µM

SMILES	IC50
O=C(N/N=C/c1ccc([N+](=O)[O-])o1)C(O)c1ccccc1 (stereo not drawn)	13.1 µM
CCCCOc1ccc(NC2=NC3(CCCCC3)N=C(N)N2)cc1	20.1 µM
O=C(c1ccc([N+](=O)[O-])o1)N1CCOCC1	24.4 µM
C#CCOCCOCCOCCNc1nc(N2CCN(C(=O)[C@H](Cc3ccc(O)cc3)n3cc([C@@H](N)CC(C)C)nn3)CC2)nc(N2CCN(C(=O)[C@H](Cc3ccc(O)cc3)n3cc([C@@H](N)CC(C)C)nn3)CC2)n1	112 µM
COC(=O)C1C(O)C(C)C(O)C(C)(O)/C=C\C=C(/C)C(=O)Nc2c(C)c(OC(C)=O)c3c(c2O)C(=O)C(C)=C2OCOC(=C23)/C(C)=C/C(C)(O)C(O)C(C)C1O (stereo not drawn)	33.1 µM
C#CCOCCOCCOCCNc1nc(N2CCN(C(=O)CCCCCCCCCCNC(=O)[C@H](CCCCN)n3cc(C)nn3)CC2)nc(N2CCN(C(=O)CCCCCCCCCCNC(=O)[C@H](CCCN=C(N)N)n3cc(C[C@@H](C)CC)nn3)CC2)n1	31.9 µM
O=[N+]([O-])c1cc(Cl)c2cccnc2c1O	1.46 µM
Oc1c(CN2CCCCC2)cc(Br)c2cccnc12	19.8 µM
Clc1ccc2[nH]c3c(c2c1)CCc1cn[nH]c1-3	74.8 µM
O=C(CN1CC(c2ccccc2)CC1=O)N/N=C/c1cc(Br)ccc1O (stereo not drawn)	46.4 µM
COc1nsnc1NS(=O)(=O)c1ccc(NC(=S)NC(=O)c2cccnc2)cc1	23.6 µM
CCCCCCCCCCOC(=O)Cn1c(COc2ccc(OC)cc2)[n+](C)c2ccccc21	19.4 µM and 18.5 µM
COc1c(N2CCN[C@H](C)C2)c(F)cc2c(=O)c(C(=O)O)cn(C3CC3)c12	< 0.23 µM
COc1cc([N+](=O)[O-])cc(/C=N/NC(=O)CSc2ccccn2)c1O	77.7 µM
Cc1ccc(OCC(=O)N/N=C/c2ccc([N+](=O)[O-])o2)cc1	28.6 µM
OC(CNCCc1ccc(C(F)(F)F)cc1)COC(c1ccccc1)c1ccccc1 (stereo not drawn)	82.9 µM
C[n+]1c2n(c3ccccc31)N=C(c1ccc(-c3ccccc3)cc1)CS2	38 µM
O=C(N/N=C/c1cc(Br)cc(Br)c1O)c1ccncc1	34.5 µM
CCC(=O)N1CCN(c2cc3c(cc2F)c(=O)c(C(=O)O)cn3CC)CC1	126 µM
NC(=O)c1ccc(N=C2C(=O)Nc3ccc([N+](=O)[O-])cc32)cc1	31.8 µM
Fc1ccc(Nc2ccnc(Nc3ccc(F)cc3)n2)cc1	39.3 µM
CN1CCc2nc(SCC(=O)Nc3cccc(F)c3)c(C#N)c(-c3cccs3)c2C1	136 µM

SMILES	IC50
S=C(Nc1ccc(Cl)c(Cl)c1)NC1CCN(Cc2ccccc2)CC1	38 µM
CCN1CCc2c(C#N)c(NCc3ccccc3)nc(NCCO)c2C1	140 µM
CCCCNC1=CC(=O)C(=O)c2ccccc21	104 µM
COc1cc(Br)cc(/C=N/c2ncn[nH]2)c1O	81.3 µM
CCCCCCCCC[n+]1cccc2c3ccccc3ccc21	26.8 µM
CCc1cccc2c1Sc1ccccc1CC2N1CCNCC1 (stereo not drawn)	44.4 µM
Fc1ccc(Nc2nc(NCc3ccco3)c3ccccc3n2)cc1	15.1 µM
CO[C@H]1C=CO[C@@]2(C)Oc3c(C)c(O)c4c(O)c(c5c(c4c3C2=O)NC2(CCN(CC(C)C)CC2)N=5)=NC(=O)C(C)=CC=C[C@H](C)[C@H](O)[C@@H](C)[C@@H](O)[C@@H](C)[C@H](OC(C)=O)[C@@H]1C	4.08 µM
CC1(C)N=C(N)NC(Nc2ccc(Br)cc2)=N1	76.4 µM
Cc1ccc2c(c1)c1c(n2CC(O)CNC2CCCCC2)CCCC1 (stereo not drawn)	136 µM
NC(N)=Nc1nc(-c2ccccc2)c2cc(Cl)ccc2n1	97.8 µM
O=C(N/N=C/c1sc2ccccc2c1O)c1cccc2ccccc12	26.7 µM
Oc1ccc(/C=N/Nc2nccnc2Cl)c(O)c1	65.8 µM
COc1c(N2CCN(C(=S)NCc3ccccc3)C(C)C2)c(F)cc2c(=O)c(C(=O)O)cn(C3CC3)c12 (stereo not drawn)	10.8 µM
CC[C@H]1OC(=O)[C@H](C)[C@@H](O[C@H]2C[C@@](C)(OC)[C@@H](O)[C@H](C)O2)[C@H](C)[C@@H](O[C@@H]2O[C@H](C)C[C@H](N(C)C)[C@H]2O)[C@](C)(O)C[C@@H](C)CN(C)[C@H](C)[C@@H](O)[C@]1(C)O	2.33 µM
Cc1cccn2c(=O)c(C=O)c(Cl)nc12	140 µM
CC1CCc2cc(F)cc3c(=O)c(C(=O)O)cn1c23 (stereo not drawn)	9.57 µM
Cc1c(CCOC(=O)C2C3CC4CC(C3)CC2C4)sc[n+]1CC(=O)c1ccc(Br)cc1 (stereo not drawn)	56.9 µM
CN(C)CCCNc1c2ccccc2nc2ccccc12	64.3 µM
COc1ccc(C(=O)N/N=C/c2sc3ccccc3c2O)cc1	44.2 µM
